Experiments:
Test in all cases: Kinase inhibitory activity, full kinase panel
Type in all cases: biochemical
Settings in all cases: single concentration of 1 μM, read-out: %Inhibitory ability
MAP4K2 = MAP4K2 (Homo sapiens, UniProt Q12851)
Protocol: (§1) In order to measure inhibitory activity (% inhibitory ability) against a protein kinase with respect to the compound of the present invention, a biochemical assay was performed in a full kinase panel shown in the following Table 1. As an experimental compound, the (S)-5-((3-fluorophenyl)ethynyl)-N-(piperidin-3-yl)-3-ureidothiophene-2-carboxamide synthesized in Example 24 was used.

MINK = MINK (Homo sapiens, UniProt Q8N4C8)
Protocol: as §1

MEK2 = MEK2 (Homo sapiens, UniProt P36507)
Protocol: as §1

TAK1 = TAK1 (Homo sapiens, UniProt O43318)
Protocol: as §1

EGFR(T790M) = EGFR(T790M) (Homo sapiens, UniProt P00533, T790M)
Protocol: as §1

LCK = LCK (Homo sapiens, UniProt P06239)
Protocol: as §1

TNIK = TNIK (Homo sapiens, UniProt Q9UKE5)
Protocol: as §1

FLT4 = FLT4 (Homo sapiens, UniProt P35916)
Protocol: as §1

SRPK1 = SRPK1 (Homo sapiens, UniProt Q96SB4)
Protocol: as §1

PDGFRB = PDGFRB (Homo sapiens, UniProt P09619)
Protocol: as §1

DRAK2 = DRAK2 (Homo sapiens, UniProt O94768)
Protocol: as §1

TGFBR2 = TGFBR2 (Homo sapiens, UniProt P37173)
Protocol: as §1

AXL = AXL (Homo sapiens, UniProt P30530)
Protocol: as §1

MAPKAPK5 = MAPKAPK5 (Homo sapiens, UniProt Q8IW41)
Protocol: as §1

LRRK2 = LRRK2 (Homo sapiens, UniProt Q5S007)
Protocol: as §1

ULK1 = ULK1 (Homo sapiens, UniProt O75385)
Protocol: as §1

DCAMKL1 = DCAMKL1 (Homo sapiens, UniProt O15075)
Protocol: as §1

DRAK1 = DRAK1 (Homo sapiens, UniProt Q9UEE5)
Protocol: as §1

CAMK1 = CAMK1 (Homo sapiens, UniProt Q14012)
Protocol: as §1

MEK5 = MEK5 (Homo sapiens, UniProt Q13163)
Protocol: as §1

RIOK1 = RIOK1 (Homo sapiens, UniProt Q9BRS2)
Protocol: as §1

JAK2 = JAK2 (Homo sapiens, UniProt O60674)
Protocol: as §1

IRAK4 = IRAK4 (Homo sapiens, UniProt Q9NWZ3)
Protocol: as §1

RET = RET (Homo sapiens, UniProt P07949)
Protocol: as §1

FAK = FAK (Homo sapiens, UniProt Q05397)
Protocol: as §1

PAK6 = PAK6 (Homo sapiens, UniProt Q9NQU5)
Protocol: as §1

ZAP70 = ZAP70 (Homo sapiens, UniProt P43403)
Protocol: as §1

EPHA3 = EPHA3 (Homo sapiens, UniProt P29320)
Protocol: as §1

YANK2 = YANK2 (Homo sapiens, UniProt Q9NY57)
Protocol: as §1

MAP3K3 = MAP3K3 (Homo sapiens, UniProt Q99759)
Protocol: as §1

MST1 = MST1 (Homo sapiens, UniProt Q13043)
Protocol: as §1

TRKB = TRKB (Homo sapiens, UniProt Q16620)
Protocol: as §1

AURKB = AURKB (Homo sapiens, UniProt Q96GD4)
Protocol: as §1

CHEK2 = CHEK2 (Homo sapiens, UniProt O96017)
Protocol: as §1

DAPK2 = DAPK2 (Homo sapiens, UniProt Q9UIK4)
Protocol: as §1

VEGFR2 = VEGFR2 (Homo sapiens, UniProt P35968)
Protocol: as §1

DAPK3 = DAPK3 (Homo sapiens, UniProt O43293)
Protocol: as §1

FLT3 = FLT3 (Homo sapiens, UniProt P36888)
Protocol: as §1

SIK2 = SIK2 (Homo sapiens, UniProt Q9H0K1)
Protocol: as §1

DLK = DLK (Homo sapiens, UniProt Q12852)
Protocol: as §1

BIKE = BIKE (Homo sapiens, UniProt Q9NSY1)
Protocol: as §1

FYN = FYN (Homo sapiens, UniProt P06241)
Protocol: as §1

Chain of JAK2 (O60674 whole entry, species assumed): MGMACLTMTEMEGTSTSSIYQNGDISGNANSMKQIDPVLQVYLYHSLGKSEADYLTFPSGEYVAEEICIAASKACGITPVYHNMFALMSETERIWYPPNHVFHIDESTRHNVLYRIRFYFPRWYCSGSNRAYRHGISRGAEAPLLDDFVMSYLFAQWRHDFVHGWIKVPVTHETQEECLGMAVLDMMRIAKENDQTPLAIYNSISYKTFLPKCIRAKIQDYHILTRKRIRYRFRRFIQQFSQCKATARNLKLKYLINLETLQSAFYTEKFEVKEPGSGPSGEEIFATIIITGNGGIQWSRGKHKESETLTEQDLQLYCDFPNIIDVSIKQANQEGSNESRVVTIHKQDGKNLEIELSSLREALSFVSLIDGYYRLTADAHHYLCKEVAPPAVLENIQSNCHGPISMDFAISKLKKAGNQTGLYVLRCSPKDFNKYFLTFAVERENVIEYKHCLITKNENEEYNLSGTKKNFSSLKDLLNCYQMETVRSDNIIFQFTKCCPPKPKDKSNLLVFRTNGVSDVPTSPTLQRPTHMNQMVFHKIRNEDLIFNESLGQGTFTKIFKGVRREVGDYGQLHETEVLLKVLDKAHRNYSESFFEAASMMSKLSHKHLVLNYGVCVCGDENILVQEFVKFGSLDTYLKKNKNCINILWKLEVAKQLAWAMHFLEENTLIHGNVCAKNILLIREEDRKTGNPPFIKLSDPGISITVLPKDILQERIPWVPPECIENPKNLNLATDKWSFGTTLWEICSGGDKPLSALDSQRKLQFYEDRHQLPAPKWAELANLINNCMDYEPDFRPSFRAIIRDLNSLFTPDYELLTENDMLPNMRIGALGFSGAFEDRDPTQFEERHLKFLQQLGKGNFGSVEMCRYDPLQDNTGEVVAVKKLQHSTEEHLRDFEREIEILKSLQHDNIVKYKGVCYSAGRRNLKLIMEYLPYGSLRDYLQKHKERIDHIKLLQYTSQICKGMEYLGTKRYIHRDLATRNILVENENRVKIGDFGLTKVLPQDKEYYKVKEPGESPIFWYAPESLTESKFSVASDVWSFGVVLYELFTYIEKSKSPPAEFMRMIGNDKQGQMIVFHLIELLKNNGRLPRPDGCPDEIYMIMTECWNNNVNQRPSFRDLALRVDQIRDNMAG
Chain of DCAMKL1 (O15075 whole entry, species assumed): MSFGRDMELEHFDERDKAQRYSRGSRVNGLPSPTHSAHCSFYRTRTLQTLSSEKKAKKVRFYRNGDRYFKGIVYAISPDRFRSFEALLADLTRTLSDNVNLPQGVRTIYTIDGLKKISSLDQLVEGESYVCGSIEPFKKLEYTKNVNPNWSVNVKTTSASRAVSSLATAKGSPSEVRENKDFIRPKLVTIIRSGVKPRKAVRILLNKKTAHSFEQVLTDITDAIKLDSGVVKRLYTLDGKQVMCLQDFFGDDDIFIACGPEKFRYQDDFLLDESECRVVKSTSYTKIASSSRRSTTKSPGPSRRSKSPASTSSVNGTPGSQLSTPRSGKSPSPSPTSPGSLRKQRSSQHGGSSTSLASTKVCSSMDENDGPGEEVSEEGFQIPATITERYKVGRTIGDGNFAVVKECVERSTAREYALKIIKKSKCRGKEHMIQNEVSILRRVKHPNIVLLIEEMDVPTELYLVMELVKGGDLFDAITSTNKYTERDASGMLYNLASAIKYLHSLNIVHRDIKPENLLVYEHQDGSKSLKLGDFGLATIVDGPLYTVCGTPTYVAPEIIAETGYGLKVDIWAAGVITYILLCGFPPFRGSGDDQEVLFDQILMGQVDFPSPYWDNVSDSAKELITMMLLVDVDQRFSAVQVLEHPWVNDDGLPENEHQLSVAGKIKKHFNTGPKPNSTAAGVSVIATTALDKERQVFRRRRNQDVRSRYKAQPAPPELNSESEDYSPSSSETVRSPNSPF
Chain of VEGFR2 (P35968 20-1356, species assumed): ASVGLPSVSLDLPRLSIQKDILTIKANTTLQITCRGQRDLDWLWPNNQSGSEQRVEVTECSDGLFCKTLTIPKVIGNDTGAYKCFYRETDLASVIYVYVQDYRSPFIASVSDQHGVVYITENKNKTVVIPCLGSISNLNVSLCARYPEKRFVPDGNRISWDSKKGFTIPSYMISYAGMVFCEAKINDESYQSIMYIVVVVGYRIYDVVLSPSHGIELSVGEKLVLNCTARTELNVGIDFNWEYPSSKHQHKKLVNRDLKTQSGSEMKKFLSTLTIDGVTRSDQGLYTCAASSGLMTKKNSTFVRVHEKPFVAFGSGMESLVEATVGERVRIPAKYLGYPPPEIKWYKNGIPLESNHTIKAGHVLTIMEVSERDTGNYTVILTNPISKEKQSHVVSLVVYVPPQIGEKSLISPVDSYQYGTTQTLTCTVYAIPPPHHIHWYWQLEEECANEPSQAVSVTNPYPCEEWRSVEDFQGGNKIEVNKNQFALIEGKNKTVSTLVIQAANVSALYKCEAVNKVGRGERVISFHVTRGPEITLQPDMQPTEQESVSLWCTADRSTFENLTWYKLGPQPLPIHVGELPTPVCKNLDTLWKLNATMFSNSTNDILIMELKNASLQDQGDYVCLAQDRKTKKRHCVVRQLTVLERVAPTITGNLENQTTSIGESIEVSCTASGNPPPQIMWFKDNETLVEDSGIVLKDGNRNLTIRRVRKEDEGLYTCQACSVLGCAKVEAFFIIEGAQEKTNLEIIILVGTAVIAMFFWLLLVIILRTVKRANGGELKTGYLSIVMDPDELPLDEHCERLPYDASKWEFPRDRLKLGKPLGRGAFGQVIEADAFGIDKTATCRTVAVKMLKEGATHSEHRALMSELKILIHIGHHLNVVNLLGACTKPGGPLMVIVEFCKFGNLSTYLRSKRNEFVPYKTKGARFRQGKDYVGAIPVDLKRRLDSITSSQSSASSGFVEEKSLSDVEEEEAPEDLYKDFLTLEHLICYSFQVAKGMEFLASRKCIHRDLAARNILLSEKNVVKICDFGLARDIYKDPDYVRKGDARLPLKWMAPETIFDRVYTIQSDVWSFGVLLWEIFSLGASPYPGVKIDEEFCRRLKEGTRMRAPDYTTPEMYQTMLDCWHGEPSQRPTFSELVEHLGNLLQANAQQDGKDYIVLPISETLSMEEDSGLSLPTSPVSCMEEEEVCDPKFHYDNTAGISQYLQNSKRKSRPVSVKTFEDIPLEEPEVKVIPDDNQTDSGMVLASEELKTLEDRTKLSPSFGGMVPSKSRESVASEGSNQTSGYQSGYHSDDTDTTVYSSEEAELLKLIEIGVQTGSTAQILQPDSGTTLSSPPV
Chain of PAK6 (Q9NQU5 whole entry): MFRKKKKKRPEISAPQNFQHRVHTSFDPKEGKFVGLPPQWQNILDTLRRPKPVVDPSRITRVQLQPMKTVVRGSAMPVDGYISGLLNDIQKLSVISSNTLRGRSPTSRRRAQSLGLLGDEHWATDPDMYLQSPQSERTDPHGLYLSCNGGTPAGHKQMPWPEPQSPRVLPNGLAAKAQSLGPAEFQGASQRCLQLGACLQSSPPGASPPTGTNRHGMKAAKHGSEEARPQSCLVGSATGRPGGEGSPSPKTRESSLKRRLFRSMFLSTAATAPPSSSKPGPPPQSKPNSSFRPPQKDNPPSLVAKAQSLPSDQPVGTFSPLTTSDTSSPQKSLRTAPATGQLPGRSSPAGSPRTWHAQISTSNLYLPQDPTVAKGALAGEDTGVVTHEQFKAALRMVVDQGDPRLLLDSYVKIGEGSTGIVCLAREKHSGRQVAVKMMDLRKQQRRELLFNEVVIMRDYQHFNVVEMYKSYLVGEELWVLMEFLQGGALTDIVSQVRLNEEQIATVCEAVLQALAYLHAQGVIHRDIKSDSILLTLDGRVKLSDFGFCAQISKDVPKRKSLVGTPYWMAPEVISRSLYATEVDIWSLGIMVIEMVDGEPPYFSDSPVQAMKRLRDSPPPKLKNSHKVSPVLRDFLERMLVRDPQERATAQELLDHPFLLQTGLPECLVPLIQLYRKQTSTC
Chain of SRPK1 (Q96SB4 whole entry, species assumed): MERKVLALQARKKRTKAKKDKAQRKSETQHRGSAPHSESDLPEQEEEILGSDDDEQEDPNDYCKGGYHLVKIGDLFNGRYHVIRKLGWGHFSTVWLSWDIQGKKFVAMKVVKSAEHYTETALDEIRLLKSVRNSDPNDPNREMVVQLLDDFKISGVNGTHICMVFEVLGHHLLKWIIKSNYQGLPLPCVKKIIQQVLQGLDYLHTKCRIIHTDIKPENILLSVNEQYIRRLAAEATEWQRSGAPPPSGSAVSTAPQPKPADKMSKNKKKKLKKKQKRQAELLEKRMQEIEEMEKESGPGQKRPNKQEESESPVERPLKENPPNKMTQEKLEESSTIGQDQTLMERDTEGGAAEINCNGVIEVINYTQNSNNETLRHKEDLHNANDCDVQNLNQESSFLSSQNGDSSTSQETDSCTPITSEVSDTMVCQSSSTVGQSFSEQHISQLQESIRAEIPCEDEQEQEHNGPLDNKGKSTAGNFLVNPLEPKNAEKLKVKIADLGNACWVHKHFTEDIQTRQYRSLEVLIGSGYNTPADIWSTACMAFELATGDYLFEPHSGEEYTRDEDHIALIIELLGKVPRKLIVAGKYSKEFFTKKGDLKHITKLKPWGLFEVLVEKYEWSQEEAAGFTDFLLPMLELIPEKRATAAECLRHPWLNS
Chain of MAPKAPK5 (Q8IW41 whole entry, species assumed): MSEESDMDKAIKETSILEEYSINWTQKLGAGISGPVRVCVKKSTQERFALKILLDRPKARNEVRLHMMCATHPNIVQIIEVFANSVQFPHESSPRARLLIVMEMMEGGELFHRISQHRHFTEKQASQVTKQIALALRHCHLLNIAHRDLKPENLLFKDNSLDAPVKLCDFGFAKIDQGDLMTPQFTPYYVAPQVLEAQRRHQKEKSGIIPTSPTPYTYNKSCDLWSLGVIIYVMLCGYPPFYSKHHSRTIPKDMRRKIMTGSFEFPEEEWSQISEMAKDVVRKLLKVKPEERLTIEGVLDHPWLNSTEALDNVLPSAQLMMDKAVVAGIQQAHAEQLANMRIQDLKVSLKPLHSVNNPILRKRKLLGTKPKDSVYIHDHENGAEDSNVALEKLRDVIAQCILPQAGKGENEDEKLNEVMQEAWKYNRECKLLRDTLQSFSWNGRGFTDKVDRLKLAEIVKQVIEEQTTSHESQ

inhibition at 1 µM (MAP4K2): 92.7%
inhibition at 1 µM (MINK): 97.1%
inhibition at 1 µM (MEK2): 93.3%
inhibition at 1 µM (TAK1): 91.5%
inhibition at 1 µM (EGFR(T790M)): 85%
inhibition at 1 µM (LCK): 72%
inhibition at 1 µM (TNIK): 96.3%
inhibition at 1 µM (FLT4): 94.5%
inhibition at 1 µM (SRPK1): 83%
inhibition at 1 µM (PDGFRB): 99.9%
inhibition at 1 µM (DRAK2): 96%
inhibition at 1 µM (TGFBR2): 72%
inhibition at 1 µM (AXL): 87%
inhibition at 1 µM (MAPKAPK5): 82%
inhibition at 1 µM (LRRK2): 72%
inhibition at 1 µM (ULK1): 99.8%
inhibition at 1 µM (DCAMKL1): 80%
inhibition at 1 µM (DRAK1): 99.5%
inhibition at 1 µM (CAMK1): 67%
inhibition at 1 µM (MEK5): 99.9%
inhibition at 1 µM (RIOK1): 77%
inhibition at 1 µM (JAK2): 83%
inhibition at 1 µM (IRAK4): 99.8%
inhibition at 1 µM (RET): 98.7%
inhibition at 1 µM (FAK): 75%
inhibition at 1 µM (PAK6): 90.3%
inhibition at 1 µM (ZAP70): 63%
inhibition at 1 µM (EPHA3): 80%
inhibition at 1 µM (YANK2): 76%
inhibition at 1 µM (MAP3K3): 94.6%
inhibition at 1 µM (MST1): 96.6%
inhibition at 1 µM (TRKB): 97.2%
inhibition at 1 µM (AURKB): 66%
inhibition at 1 µM (CHEK2): 100%
inhibition at 1 µM (DAPK2): 88%
inhibition at 1 µM (VEGFR2): 73%
inhibition at 1 µM (DAPK3): 84%
inhibition at 1 µM (FLT3): 99.6%
inhibition at 1 µM (SIK2): 73%
inhibition at 1 µM (DLK): 68%
inhibition at 1 µM (BIKE): 77%
inhibition at 1 µM (FYN): 91.5%
Compound: Cc1ccc(C#Cc2cc(NC(N)=O)c(C(=O)N[C@H]3CCCNC3)s2)cc1 [Example 24, (S)—N-(piperidin-3-yl)-5-(p-tolylethynyl)-3-ureidothiophene-2-carboxamide]

Source: patent publication US10442796B2, “2,3,5-substituted thiophene compound as protein kinase inhibitor” (KOREA INSTITUTE OF SCIENCE AND TECHNOLOGY, priority 2016, dated 2019)
